Each structure is given as a SMILES string. Some results are limits rather than exact numbers.

One data set has as its target HIV-1 protease (Human immunodeficiency virus type 1 group M subtype B, UniProt P04585). Nature of the data set: Fluorimetric HIV-1 protease assay. It counts as biochemical. The note with it: concentration up to 25 μM; data not shown. The method, then: Fluorimetric HIV-1 protease assay. The fluorescent HIV-1 protease substrate (RE-(EDANS)-SQNYPIVQK-(DABCYL)-R) was obtained from Molecular Probes, Inc. (Eugene, Oreg.). Substrate and buffer were pre-warmed at 37° C. for at least 20 min before use. The protease (25 nM final concentration) was incubated in the manufacturer's recommended assay buffer (100 mM Na acetate, 1M NaCl, 1 mM EDTA, 1 mM DTT, 10% DMSO and 1 mg ml^−1 BSA pH 4.7) at 37° C. in the presence of 1-25 μM NSC 18806 for 10 min and then added to the warmed substrate solution (40 μM) containing the different treatments to initiate the reaction. Acetyl pepstatin (Sigma, St. Louis, Mo.) at 20 nM was used a positive HIV-1 protease inhibitor control. The total assay volume was 100 µL. Fluorescence was monitored for 30 min in a fluorescence microplate reader (FMAX, Molecular Devices, Sunnyvale, Calif.) with 355 nm excitation and 460 nm emission filters and the rate of reactions compared for the different conditions.

Data set [1] addresses T1, HIV-1 integrase (Human immunodeficiency virus type 1 group M subtype B, UniProt P04585).
T1 construct: Expression and purification of the recombinant HIV-1 integrase in Escherichia coli; made in house; host or cells: Escherichia coli
Put plainly: Integrase catalytic assay, strand transfer (ST), 21 bp duplex substrate. The format is biochemical. The note with it: for IC50: In vitro IC50 21 bp substrate ST. Here is the method:
(§1) Recombinant HIV integrase and oligonucleotide substrates. Expression and purification of the recombinant HIV-1 integrase in Escherichia coli were performed according to (Leh et al., 2000; Marchand et al., 2001) with addition of 10% glycerol to all buffers. The preparation of the Q148C/SSS-mutant integrase will be described elsewhere (Johnson et al., 2005). The oligonucleotide substrates, except those used for the disulfide crosslinking (FIG. 5A), were purchased from Integrated DNA Technologies, Inc. (Coraville, Iowa) and purified by polyacrylamide gel. The single-stranded oligonucleotides were 5′-end labeled with [γ^32P]-ATP (Perkin Elmer, Wellesley, M A) and T4 polynucleotide kinase (New England BioLabs, Ipswich, M A). Unincorporated nucleotide was removed using mini Quick Spin Oligo columns (Roche Diagnostics, Indianapolis, Ind.). Substrates were obtained after annealing with complementary non-labeled oligonucleotides. The thiol-modified substrate (FIG. 5A) for disulfide crosslinking assay was synthesized as essentially described by W. Santos and G. Verdine (Department of Chemistry and Chemical Biology, Harvard University, Cambridge, Mass.) (They and Verdine, 2002).
(§2) Integrase catalytic assays. Reactions were performed in 10 μl with 300 nM of recombinant IN, 20 nM of the 5′-end [^32P]-labeled oligonucleotide substrates and inhibitors at the indicated concentrations. 10% DMSO was included in controls. Reactions were incubated for 40 min at 37° C. in a buffer containing a final concentration of 25 mM MOPS, pH 7.2, 25 mM NaCl, 14.3 mM β-mercaptoethanol and 7.5 mM of divalent cations (MgCl2 or MnCl2 as indicated). Reactions were stopped by addition of 20 μl loading dye (10 mM EDTA, 98% deionized formamide, 0.025% xylene cyanol and 0.025% bromophenol blue). Reactions were heated at 95° C. for 1 min before electrophoresis in 20% polyacrylamide-7 M urea gels. Gels were dried and reaction products were visualized and quantitated with a Molecular Dynamics PhosphorImager (Sunnyvale, Calif.). Densitometric analyses were performed using ImageQuant from the Molecular Dynamics software. The concentrations at which enzyme activity was reduced by 50% (IC50), was determined using “Prism” software (GraphPad Software, San Diego, Calif.) for nonlinear regression to fit dose-response data to logistic curve models.

Data set [2] addresses T1, HIV-1 integrase. Nature of the data set: Integrase binding to HIV DNA, Schiff base crosslinking assay. The note with it: Mg2+. Here is the method:
Integrase binding to HIV DNA using the shiff-base assay. The shiff-base assay was performed as described (Mazumder and Pommier, 1995). Briefly, 300 nM recombinant IN was incubated with inhibitors (at the indicated concentration) for 15 min at 37° C. Subsequently, 20 nM of 5′-end labeled substrate containing the abasic oligonucleotide (FIG. 6A) was added for 10 min at room temperature in reaction buffer described above for integrase catalytic assays. A freshly prepared solution of sodium borohydride (0.1 M final concentration) was added for 5 min. An equal volume (10 μl) of 2×SDS-polyacrylamide gel electrophoresis buffer (Invitrogen, Carlsbad, Calif.) was added in each reaction. Reaction products were heated at 95° C. for 1 min before analysis by electrophoresis in a 12-20% polyacrylamide gels (Invitrogen, Calif., USA). Gels were dried and reaction products were quantitated using the same method as described above.

Data set [3] concerns the target T1, HIV-1 integrase. Put plainly: Disintegration assay with Y-oligomer substrate. It counts as biochemical. The note with it: for IC50: In vitro IC50 Disintegration. The method, then: as §1, §2
For another data set, the system named is MT-2 cells. It counts as cell-based. The note with it: human, 4 days. Here is the method:
(§3) Inhibition of HIV-induced cytopathic effect in cell culture. The MT-2 cells were grown in RPMI-1640 medium with GlutaMAX™, supplemented with 10% (v/v) heat-inactivated fetal bovine serum (both from Gibco, Invitrogen corporation, Carlsbad). The cells were maintained at 37° C. in a humidified atmosphere of 5% CO2 in air. Every 4-5 days, cells were spun down and seeded at 2×10^5 cells/ml in new cell culture flasks. HIV ([…] isolate) was obtained from Advanced Biotechnology Incorporated (Columbia, Md.). The virus stock [3,2×10^4 CCID50 (50% cell culture infective dose) per ml as determined for MT-2 cells] was stored at −70° C. until used. Stock solutions of compounds were diluted using medium directly into 96-well assay plate (Costar, Corning inc, Corning, N.Y.).
(§4) Cells were then infected with 100 CCID50 or mock-infected. The cell cultures were incubated at 37° C. in a humidified atmosphere of 5% CO2 in air. […] The percent cell viability in drug treated uninfected and infected cells was determined based on the viability of the uninfected control drug treated cells. The concentration of drug required to inhibit approximately 50% of the HIV-1 induced cytotoxicity was calculated from the plot of compound concentration verses the percent viable cells.

For a further data set, the system named is HIV-1IIIB. Put plainly: Inhibition of HIV-induced cytopathic effect in MT-2 cell culture. The format is cell-based. As to conditions: MT-2 cells. The method, then: as §3, §4
Data set [4] concerns the target T1, HIV-1 integrase. Put plainly: Strand transfer assay with preprocessed (19/21) DNA substrate. It counts as biochemical. As to conditions: In vitro IC50 Preprocessed substrate. The method, then: as §1, §2
The target of data set [5] is T1, HIV-1 integrase. Put plainly: Integrase catalytic assay, 3′-processing (3′-P), 21 bp duplex substrate. The format is biochemical. As to conditions: In vitro IC50 21 bp substrate 3′-P. The method, then:
as §1, §2

Data set [6] concerns the target T2, Q148C/SSS-mutant integrase (Human immunodeficiency virus type 1 group M subtype B, UniProt P04585, C1203S/C1212S/C1427S/Q1295C).
T2 construct: 10 μM recombinant Q148C/SSS-mutant integrase was incubated with 10 μM DNA substrate; made in house
Put plainly: biochemical. It counts as binding, HIV-1.
Procedure: Briefly, 10 μM recombinant Q148C/SSS-mutant integrase was incubated with 10 μM DNA substrate (FIG. 5A) containing tethered thiols in the presence of 20 mM Tris, pH 7.4, 10% glycerol and 7.5 mM of divalent cations (MgCl2 or MnCl2 as indicated) for 20 min at 37° C. Reactions were stopped by the addition of 20 mM methylmethanethiosulfonate (capping reagent). Non-reducing gel loading buffer (100 mM Tris-HCl, pH 6.8, 4% SDS, 0.2% bromophenol blue, 20% glycerol) was added and samples were heated at 95° C. before loading onto 16% tricine gels (Invitrogen, Carlsbad, Calif.). Gels were stained with Microwave Blue according to manufacturer's recommendations (Protiga, Frederick, Md.).
DNA (20 nM) containing a [5′-^32P]-label on one strand and a thiol-modified cytosine on the other strand was added and reactions were capped with methylmethanethiosulfonate at 1 minute. Following capping, non-reducing gel loading buffer (100 mM Tris-HCl, pH 6.8, 4% SDS, 0.2% bromophenol blue, 20% glycerol) was added and samples were directly loaded on 16% tricine gels (Invitrogen, Carlsbad, Calif.). Gels were dried and reaction products were quantitated using the same way as described above.

Usually IC50 stands for the midpoint of a concentration-inhibition curve. In the case of `CC(C)c1ccc(O)c(=O)c(O)c1` [NSC 18806, β-thujaplicinol], at HIV-1 protease, the “inhibition of HIV-1 protease (in words)” value was “failed to inhibit HIV-1 protease”. Further, the “IC50 for 3′-P relative to IC50 for ST” value at HIV-1 integrase [1] (21 bp duplex, in the presence of either Mg2+ or Mn2+) is given as “approximately 5 fold”. The IC50 against HIV-1 integrase [1] (Mg2+) is 21.6 ± 3.4 µM; at HIV-1 integrase [1] (Mn2+), 4.8 ± 2.5 µM; at HIV-1 integrase [3] (Mg2+) it was more than 333 µM; on HIV-1 integrase [3] (Mn2+), 23.8 µM; in the data set with HIV-1IIIB (Human immunodeficiency virus 1, MT2, 96 h, four days after infection, read-out: estimated IC50, protection of infected cells from HIV-induced cytopathic effect), approximately 12 µM; on HIV-1 integrase [4] (Mg2+), 18.1 ± 6.2 µM. The IC50 at HIV-1 integrase [4] (Mn2+) was 5 µM; at HIV-1 integrase [5] (Mg2+), 117 ± 7.1 µM; against HIV-1 integrase [5] (Mn2+), 24.6 µM; in [6], 32 µM. For the same compound, the “inhibition of Schiff base IN-DNA crosslinking (in words)” value on HIV-1 integrase [2] is “did not block”. In addition, the “inhibition of disintegration (in words)” value against HIV-1 integrase [3] (Mg2+) was “inability of NSC 18806 to inhibit disintegration”; against HIV-1 integrase [3] (Mn2+) it was “only inhibited in the presence of Mn^2+ at high drug concentration”. The inhibition at 333 µM at HIV-1 integrase [3] (read-out: inhibition activity, disintegration) was 5 to 20%. Also, the “concentrations with presence of toxicity” value with MT-2 cells was not below 12 µM. Also, the “activity in HIV infectivity assay (in words)” value in the data set with HIV-1IIIB is “exhibits cytoprotective activity”. Further, the “inhibition of integrase-DNA disulfide-crosslinking (in words)” value in data set [6] (drug 1 mM, Mg2+ or Mn2+ (FIG. 5B)) is listed as “metal-dependent inhibition”.

The record behind these values is patent US20100152301A1, “Treatment of Viral Infections” (GOVERNMENT OF THE US, AS REPRESENTED BY THE SECRETARY, …, priority 2005, published 2010).
